# Test results: patent US11091497B2, “Pyrano[3,4-b]pyrazine kappa opioid receptor ligands for treating addiction, pruritus, pain, and inflammation” (The Rockefeller University, priority 2017, dated 2021)
# Where two headings read alike, the source gives them in different places.
# Tests used:
# [1] = target: T1, kappa opioid receptor (PathHunter U2OS hOPRK1 β-arrestin cell line) (Homo sapiens, UniProt P41145); assay: β-arrestin coupling (PathHunter Detection Kit); assay type: cell-based; details: for Emax at 10 µM: U2OS; for β-arrestin coupling EC50: 90 minutes at 37° C.; for β-arrestin coupling EC50 / β-arrestin coupling % efficacy: No stim = no stimulation at highest dose tested, 10,000 nM; for β-arrestin coupling % efficacy: maximal, normalized to U69,593
# T1 construct: host or cells: U2OS (PathHunter U2OS hOPRK1 β-arrestin cell line)
# Procedure: (§1) Membranes from cells stably expressing kappa, mu or delta opioid receptor constructs (PathHunter U2OS hOPRK1, CHO-K1 rOPRM1 and CHO-K1 OPRD1 β-arrestin cell line, DiscoverX, Fremont, Calif., USA) were used. Cells were scraped from tissue culture plates, homogenized with a tissue tearor homogenizer in membrane buffer (10 mM Tris, 100 mM NaCl, and 1 mM EDTA; pH 7.4), and centrifuged at 20,000 g for 30 minutes at 4° C. and frozen at −80° C. until use. Prior to use, the pellets were resuspended in binding buffer (50 mm Tris, 100 mm NaCl, pH 7.4), homogenized with a dounce homogenizer and […] incubated with 1.0 nM of the appropriate tritiated ligand ([^3H]U69,593, [^3H]DAMGO or [^3H]DPDPE for kappa, mu or delta binding, respectively) and the appropriate concentration of compound for 60 minutes at 30° C. Membranes with bound tritiated ligand were collected on Whatman GF/B filter paper (Brandel, Gaithersburg, Md., USA) utilizing a Brandel harvester. Bound tritiated ligand was quantified using a TriCarb-2900TR scintillation counter (Packard, Downers Grove, Ill., USA) following addition of 4 ml ReadySafe scintillation fluid (Beckman Coulter, Indianapolis, Ind., USA). Compiled data for each compound was normalized to the maximal binding in the absence of compound, with non-specific binding subtracted. Curve fitting was done in Microcal Origin 17.0 software using logistic sigmoidal fit, to determine IC50. GTPgammaS Membranes from U2OS cells stably expressing human kappa opioid receptors were used. Cells were scraped from tissue culture plates, homogenized with a tissue tearor homogenizer in membrane buffer (10 mM Tris, 100 mM NaCl, and 1 mM EDTA; pH 7.4), and centrifuged at 20,000 g for 30 minutes at 4° C. and frozen at −80° C. until use. Prior to use, the pellets were resuspended in assay buffer (50 mm Tris, 100 mm NaCl, 5 mM MgCl2, and 1 mM EDTA; pH 7.4) and homogenized with a dounce homogenizer and 50 μg incubated with 0.1 nM [35 S]GTPγS, 10 nM GDP, and the appropriate concentration of agonist for 20 minutes at 30° C. To test inhibition, all samples were incubated with 100 nM U69,593 as well as the appropriate concentration of compound. Membranes with bound [35 S]GTPγS were collected on Whatman GF/B filter paper (Brandel, Gaithersburg, Md., USA) utilizing a Brandel harvester. Bound [35 S]GTPγS was quantified using a TriCarb-2900TR scintillation counter (Packard, Downers Grove, Ill., USA) following addition of 4 mL ReadySafe scintillation fluid (Beckman Coulter, Indianapolis, Ind., USA). […] NA indicates not applicable. For each compound, curve fitting was done in Microcal Origin 17.0 software using logistic sigmoidal fit, to determine EC50 and maximal percent stimulation, which in turn was normalized to the maximal percent stimulation of the test full agonist compound U69,593 to determine % efficacy. β2-Arrestin Experiments were conducted using the PathHunter Detection Kit obtained from DiscoverX. Cells stably expressing kappa, mu or delta opioid receptor constructs (PathHunter U2OS hOPRK1, CHO-K1 rOPRM1 and CHO-K1 OPRD1 β-arrestin cell line, DiscoverX, Fremont, Calif., USA) were plated in 96- or 384-well plates. Cells were stimulated with the compounds for 90 minutes at 37° C. To test inhibition, all samples were incubated with 100 nM U69,593 as well as the appropriate concentration of compound. Cells were then incubated for 60 minutes in the presence of galoctosidase substrate, yielding chemiluminescent product. Chemiluminescence was measured using a Synergy Neo microplate reader (BioTek, Winooski, Vt., USA). Antagonism assays were done in the same manner, in the presence of 300 nM U69,593, 1 μM DAMGO or 1 μM DPDPE for KOP-R, MOP-R or DOP-R assays, respectively. […] NA indicates not applicable. […]
# [2] = target: T2, kappa opioid receptor (PathHunter U2OS hOPRK1 membranes) (Homo sapiens, UniProt P41145); assay: Tritiated U69,593 binding for KOP-R membranes
# T2 construct: host or cells: U2OS (PathHunter U2OS hOPRK1 β-arrestin cell line)
# Procedure: Tritiated U69,593 binding for KOP-R membranes; tritiated DAMGO binding for MOP-R membranes; and tritiated DPDPE binding for DOP-R membranes:
# as §1
# [3] = target: T3, human kappa opioid receptors (Homo sapiens, UniProt P41145); assay: [35S]GTPγS stimulation, membranes from U2OS cells; assay type: biochemical; details: for Emax: read-out: GTPγS stimulation % efficacy
# T3 construct: expressed in transfected cells; host or cells: U2OS
# Procedure: Membranes from cells stably expressing kappa, mu or delta opioid receptor constructs (PathHunter U2OS hOPRK1, CHO-K1 rOPRM1 and CHO-K1 OPRD1 β-arrestin cell line, DiscoverX, Fremont, Calif., USA) were used. Cells were scraped from tissue culture plates, homogenized with a tissue tearor homogenizer in membrane buffer (10 mM Tris, 100 mM NaCl, and 1 mM EDTA; pH 7.4), and centrifuged at 20,000 g for 30 minutes at 4° C. and frozen at −80° C. until use. Prior to use, the pellets were resuspended in binding buffer (50 mm Tris, 100 mm NaCl, pH 7.4), homogenized with a dounce homogenizer and […] incubated with 1.0 nM of the appropriate tritiated ligand ([^3H]U69,593, [^3H]DAMGO or [^3H]DPDPE for kappa, mu or delta binding, respectively) and the appropriate concentration of compound for 60 minutes at 30° C. Membranes with bound tritiated ligand were collected on Whatman GF/B filter paper (Brandel, Gaithersburg, Md., USA) utilizing a Brandel harvester. Bound tritiated ligand was quantified using a TriCarb-2900TR scintillation counter (Packard, Downers Grove, Ill., USA) following addition of 4 ml ReadySafe scintillation fluid (Beckman Coulter, Indianapolis, Ind., USA). Compiled data for each compound was normalized to the maximal binding in the absence of compound, with non-specific binding subtracted. Curve fitting was done in Microcal Origin 17.0 software using logistic sigmoidal fit, to determine IC50. GTPgammaS Membranes from U2OS cells stably expressing human kappa opioid receptors were used. Cells were scraped from tissue culture plates, homogenized with a tissue tearor homogenizer in membrane buffer (10 mM Tris, 100 mM NaCl, and 1 mM EDTA; pH 7.4), and centrifuged at 20,000 g for 30 minutes at 4° C. and frozen at −80° C. until use. Prior to use, the pellets were resuspended in assay buffer (50 mm Tris, 100 mm NaCl, 5 mM MgCl2, and 1 mM EDTA; pH 7.4) and homogenized with a dounce homogenizer and 50 μg incubated with 0.1 nM [35 S]GTPγS, 10 nM GDP, and the appropriate concentration of agonist for 20 minutes at 30° C. To test inhibition, all samples were incubated with 100 nM U69,593 as well as the appropriate concentration of compound. Membranes with bound [35 S]GTPγS were collected on Whatman GF/B filter paper (Brandel, Gaithersburg, Md., USA) utilizing a Brandel harvester. Bound [35 S]GTPγS was quantified using a TriCarb-2900TR scintillation counter (Packard, Downers Grove, Ill., USA) following addition of 4 mL ReadySafe scintillation fluid (Beckman Coulter, Indianapolis, Ind., USA). […] For each compound, curve fitting was done in Microcal Origin 17.0 software using logistic sigmoidal fit, to determine EC50 and maximal percent stimulation, which in turn was normalized to the maximal percent stimulation of the test full agonist compound U69,593 to determine % efficacy. β2-Arrestin Experiments were conducted using the PathHunter Detection Kit obtained from DiscoverX. Cells stably expressing kappa, mu or delta opioid receptor constructs (PathHunter U2OS hOPRK1, CHO-K1 rOPRM1 and CHO-K1 OPRD1 β-arrestin cell line, DiscoverX, Fremont, Calif., USA) were plated in 96- or 384-well plates. Cells were stimulated with the compounds for 90 minutes at 37° C. To test inhibition, all samples were incubated with 100 nM U69,593 as well as the appropriate concentration of compound. Cells were then incubated for 60 minutes in the presence of galoctosidase substrate, yielding chemiluminescent product. Chemiluminescence was measured using a Synergy Neo microplate reader (BioTek, Winooski, Vt., USA). Antagonism assays were done in the same manner, in the presence of 300 nM U69,593, 1 μM DAMGO or 1 μM DPDPE for KOP-R, MOP-R or DOP-R assays, respectively.
# [4] = read-out: β-arrestin coupling % efficacy at 10 μM
# [5] = 1.0 nM [3H]U69,593, 60 minutes at 30° C., read-out: Binding IC50
# [6] = read-out: β-arrestin coupling % efficacy
# T3 sequence (P41145 whole entry): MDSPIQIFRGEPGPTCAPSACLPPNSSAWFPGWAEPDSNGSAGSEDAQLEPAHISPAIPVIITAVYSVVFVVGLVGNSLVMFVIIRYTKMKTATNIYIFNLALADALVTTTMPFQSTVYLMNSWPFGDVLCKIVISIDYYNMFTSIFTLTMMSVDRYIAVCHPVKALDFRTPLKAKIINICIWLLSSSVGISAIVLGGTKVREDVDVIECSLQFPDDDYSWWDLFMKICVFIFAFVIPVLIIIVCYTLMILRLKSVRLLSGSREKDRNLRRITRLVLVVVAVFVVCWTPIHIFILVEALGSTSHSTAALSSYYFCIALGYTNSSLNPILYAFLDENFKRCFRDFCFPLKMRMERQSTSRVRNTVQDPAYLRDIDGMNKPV
# T1 sequence (P41145 whole entry): as above
# T2 sequence (P41145 whole entry): as above
Compound,"Emax at 10 µM [1, 4] [%]",IC50 [2] [nM],EC50 [3] [nM],Emax [3] [%],β-arrestin coupling EC50 [1],β-arrestin coupling % efficacy [1],"IC50 [2, 5] [nM]",EC50 [1] [nM],"Emax at 10 µM [1, 6] [%]"
"O=C(Cc1ccc(Cl)c(Cl)c1)N1CCN(S(=O)(=O)C2CC2)[C@H]2COC[C@@H](N3CCCC3)[C@@H]21 (single isomer, unassigned) [Example 5A52B]",25,27,18,96,,,,,
Cc1ccc(CC(=O)N2CCN[C@@H]3COC[C@H](N4CCCC4)[C@H]32)cc1C (racemic) [Example 5A40],,,1700,111,No stim,No stim,719,,
"O=C(Cc1ccc(Cl)c(Cl)c1)N1CCN(Cc2ccccc2)[C@@H]2COC[C@H](N3CCCC3)[C@H]21 (single isomer, unassigned) [Example 5A53A]",80,108,18,80,,,,,
CN(CC1CC1)[C@H]1COC[C@H]2NCCN(C(=O)Cc3ccc(Cl)c(Cl)c3)[C@@H]21 (racemic) [Example 5A50],,297,93,79,,No stim,,,
O=C(Cc1ccc(Cl)c(C(F)(F)F)c1)N1CCN[C@@H]2COC[C@H](N3CCCC3)[C@H]21 (racemic) [Example 5A46],100,15,6.3,131,,,,,
O=C(Cc1ccc(F)c(Cl)c1)N1CCN[C@@H]2COC[C@H](N3CCCC3)[C@H]21 (racemic) [Example 5A25],,,571,93,,,249,13600,29
O=C(Cc1ccc(Cl)c(Cl)c1)N1CCN(S(=O)(=O)C2CC2)[C@@H]2COC[C@H](N3CCCC3)[C@H]21 (racemic) [Example 5A52],,5.1,3,101,,,,3300,79
Cc1cc(CC(=O)N2CCN[C@@H]3COC[C@H](N4CCCC4)[C@H]32)ccc1Cl (racemic) [Example 5A58],20,,261,161,,,116,,
COC(=O)N1CCN(C(=O)Cc2ccc(Cl)c(Cl)c2)[C@H]2[C@H]1COC[C@@H]2N1CCCC1 (racemic) [Example 5A67],,41,12,85,,,,5200,85
Cc1ccc(CC(=O)N2CCN[C@@H]3COC[C@H](N4CCCC4)[C@H]32)cc1C(F)(F)F (racemic) [Example 5A47],,31,9,84,,,,4900,78
O=C(Cc1cc(Cl)cc(Cl)c1)N1CCN[C@@H]2COC[C@H](N3CCCC3)[C@H]21 (racemic) [Example 5A32],,,464,66.5,No stim,No stim,410,,
O=C(Cc1cccc(C(F)(F)F)c1)N1CCN[C@@H]2COC[C@H](N3CCCC3)[C@H]21 (racemic) [Example 5A26],,,130,108,,,112,3260,42
"O=C(Cc1ccc(Cl)c(Cl)c1)N1CCN(CC2CCC2)[C@@H]2COC[C@H](N3CCCC3)[C@H]21 (single isomer, unassigned) [Example 5A55A]",,94,30,84,,No stim,,,
"O=C(Cc1ccc(Cl)c(Cl)c1)N1CCN(CC2CCC2)[C@H]2COC[C@@H](N3CCCC3)[C@@H]21 (single isomer, unassigned) [Example 5A55B]",80,20,13,62,,,,,
O=C(Cc1ccc(C(F)(F)F)cc1)N1CCN[C@@H]2COC[C@H](N3CCCC3)[C@H]21 (racemic) [Example 5A49],,,109,69,,,102,11000,36
